Assay results as given in PubChem BioAssay AID2060902 (Molecular Pharmacology Branch, DTP, NCI, 2025).

Tested on: 485368-065-R3-J5-PDC spheroids with HUVEC/MSC, viability
Assay: Anticancer human tumor 485368-065-R3-J5-PDC patient-derived pancreatic carcinoma cell line growth inhibition [RAS]
Details: for IC50: curve of first compound; for viability, T/C: stronger effect = lower value
Procedure, shortened: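 Tumour cells grown as complex spheroids with HUVEC endothelial cells and mesenchymal stem cells, treated with RAS pathway inhibitor combinations. Each agent spans half-log steps from near clinical Cmax, or 10 microM where Cmax is unknown.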
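Note: spheroids exposed to agents for seven days before readout.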

Nc1ccn(C2OC(CO)C(O)C2(F)F)c(=O)n1 (centres undefined) + C=CC(=O)N1CCN(c2nc(OCC3CCCN3C)nc3c(F)c(-c4nc(N)cc(C)c4C(F)(F)F)c(Cl)cc23)C(C)C1
IC50 (second compound 0.00316 µM): 6.42 nM | IC50 (second compound 0.01 µM): 6.43 nM | IC50 (second compound 0.0316 µM): 6.5 nM | IC50 (second compound 0.1 µM): 6.18 nM | IC50 (second compound 0.316 µM): 6.26 nM | IC50 (second compound 1 µM): 6.1 nM | viability, T/C (second compound 0.00316 µM, first compound 0.00316 µM): 107% | viability, T/C (second compound 0.00316 µM, first compound 0.01 µM): 14.7% | viability, T/C (second compound 0.00316 µM, first compound 0.0316 µM): 10.7% | viability, T/C (second compound 0.00316 µM, first compound 0.1 µM): 9.52% | viability, T/C (second compound 0.00316 µM, first compound 0.316 µM): 8.08% | viability, T/C (second compound 0.00316 µM, first compound 1 µM): 10.4% | viability, T/C (second compound 0.01 µM, first compound 0.00316 µM): 104% | viability, T/C (second compound 0.01 µM, first compound 0.01 µM): 16.8% | viability, T/C (second compound 0.01 µM, first compound 0.0316 µM): 9.83% | viability, T/C (second compound 0.01 µM, first compound 0.1 µM): 7.76% | viability, T/C (second compound 0.01 µM, first compound 0.316 µM): 10.4% | viability, T/C (second compound 0.01 µM, first compound 1 µM): 9.94% | viability, T/C (second compound 0.0316 µM, first compound 0.00316 µM): 103% | viability, T/C (second compound 0.0316 µM, first compound 0.01 µM): 18.4% | viability, T/C (second compound 0.0316 µM, first compound 0.0316 µM): 12.1% | viability, T/C (second compound 0.0316 µM, first compound 0.1 µM): 9.22% | viability, T/C (second compound 0.0316 µM, first compound 0.316 µM): 9.83% | viability, T/C (second compound 0.0316 µM, first compound 1 µM): 10.7% | viability, T/C (second compound 0.1 µM, first compound 0.00316 µM): 97% | viability, T/C (second compound 0.1 µM, first compound 0.01 µM): 16.3% | viability, T/C (second compound 0.1 µM, first compound 0.0316 µM): 9.86% | viability, T/C (second compound 0.1 µM, first compound 0.1 µM): 7.88% | viability, T/C (second compound 0.1 µM, first compound 0.316 µM): 9.19% | viability, T/C (second compound 0.1 µM, first compound 1 µM): 9.27% | viability, T/C (second compound 0.316 µM, first compound 0.00316 µM): 101% | viability, T/C (second compound 0.316 µM, first compound 0.01 µM): 15.3% | viability, T/C (second compound 0.316 µM, first compound 0.0316 µM): 8.44% | viability, T/C (second compound 0.316 µM, first compound 0.1 µM): 8.63% | viability, T/C (second compound 0.316 µM, first compound 0.316 µM): 9.97% | viability, T/C (second compound 0.316 µM, first compound 1 µM): 11% | viability, T/C (second compound 1 µM, first compound 0.00316 µM): 89.7% | viability, T/C (second compound 1 µM, first compound 0.01 µM): 20.2% | viability, T/C (second compound 1 µM, first compound 0.0316 µM): 11.6% | viability, T/C (second compound 1 µM, first compound 0.1 µM): 9.69% | viability, T/C (second compound 1 µM, first compound 0.316 µM): 11.4% | viability, T/C (second compound 1 µM, first compound 1 µM): 11.8%

C=CC(=O)N1CCN(c2nc(OCC3CCCN3C)nc3c(F)c(-c4nc(N)cc(C)c4C(F)(F)F)c(Cl)cc23)C(C)C1 (centres undefined) + CCn1c(-c2cc(N3CCN(C)CC3)cnc2C(C)OC)c2c3cc(ccc31)-c1csc(n1)CC(NC(=O)C1CC1C)C(=O)N1CCCC(N1)C(=O)OCC(C)(C)C2
IC50 (second compound 0.000949 µM): < 3.16 nM | IC50 (second compound 0.003 µM): < 3.16 nM | IC50 (second compound 0.00949 µM): < 3.16 nM | IC50 (second compound 0.03 µM): < 3.16 nM | IC50 (second compound 0.0949 µM): < 3.16 nM | IC50 (second compound 0.3 µM): < 3.16 nM | viability, T/C (second compound 0.000949 µM, first compound 0.00316 µM): 32.9% | viability, T/C (second compound 0.000949 µM, first compound 0.01 µM): 35.6% | viability, T/C (second compound 0.000949 µM, first compound 0.0316 µM): 36.7% | viability, T/C (second compound 0.000949 µM, first compound 0.1 µM): 29.5% | viability, T/C (second compound 0.000949 µM, first compound 0.316 µM): 30.1% | viability, T/C (second compound 0.000949 µM, first compound 1 µM): 38.9% | viability, T/C (second compound 0.003 µM, first compound 0.00316 µM): 23.4% | viability, T/C (second compound 0.003 µM, first compound 0.01 µM): 21.4% | viability, T/C (second compound 0.003 µM, first compound 0.0316 µM): 21.2% | viability, T/C (second compound 0.003 µM, first compound 0.1 µM): 20.9% | viability, T/C (second compound 0.003 µM, first compound 0.316 µM): 20.9% | viability, T/C (second compound 0.003 µM, first compound 1 µM): 19.6% | viability, T/C (second compound 0.00949 µM, first compound 0.00316 µM): 17.3% | viability, T/C (second compound 0.00949 µM, first compound 0.01 µM): 18.3% | viability, T/C (second compound 0.00949 µM, first compound 0.0316 µM): 15.8% | viability, T/C (second compound 0.00949 µM, first compound 0.1 µM): 15.6% | viability, T/C (second compound 0.00949 µM, first compound 0.316 µM): 18% | viability, T/C (second compound 0.00949 µM, first compound 1 µM): 15.2% | viability, T/C (second compound 0.03 µM, first compound 0.00316 µM): 12.1% | viability, T/C (second compound 0.03 µM, first compound 0.01 µM): 11.4% | viability, T/C (second compound 0.03 µM, first compound 0.0316 µM): 12.5% | viability, T/C (second compound 0.03 µM, first compound 0.1 µM): 12.9% | viability, T/C (second compound 0.03 µM, first compound 0.316 µM): 12.8% | viability, T/C (second compound 0.03 µM, first compound 1 µM): 15.7% | viability, T/C (second compound 0.0949 µM, first compound 0.00316 µM): 10% | viability, T/C (second compound 0.0949 µM, first compound 0.01 µM): 12.6% | viability, T/C (second compound 0.0949 µM, first compound 0.0316 µM): 11.2% | viability, T/C (second compound 0.0949 µM, first compound 0.1 µM): 9.36% | viability, T/C (second compound 0.0949 µM, first compound 0.316 µM): 9.84% | viability, T/C (second compound 0.0949 µM, first compound 1 µM): 12.7% | viability, T/C (second compound 0.3 µM, first compound 0.00316 µM): 10.8% | viability, T/C (second compound 0.3 µM, first compound 0.01 µM): 9.38% | viability, T/C (second compound 0.3 µM, first compound 0.0316 µM): 9% | viability, T/C (second compound 0.3 µM, first compound 0.1 µM): 8.35% | viability, T/C (second compound 0.3 µM, first compound 0.316 µM): 10.7% | viability, T/C (second compound 0.3 µM, first compound 1 µM): 11%
